From ChEMBL document CHEMBL1201862, “PubChem BioAssay data set” (2004)
Several values for one entry are separate records, joined by “and”; a condition that tells them apart may be missing. Equal entries are not always repeated. Activity calls are given as the source filed them.

Experiments:
[1] = NIH-3T3 fibroblast cytotoxicity, dose response, cytotoxicity control, cell-based, fluorescence, Alamar Blue, secondary assay (AID 2327); assay type: functional;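 further: NIH-3T3 mouse fibroblasts cultured with fluconazole at 8 µg/mL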
[2] = ZM109 Env clade C HIV-1 fusion inhibitors, dose response, HeLa effector, CEM target cells, luciferase, cherry-pick (AID 652058); assay type: functional, cell-based
A-375 = assay: A375 melanoma cell viability reduction, dose response, counter-screen for MITF modulator project, cherry-pick samples, set 2 (AID 540335); assay type: functional, cell-based; conditions: Homo sapiens
[3] = biological target: T1, Apoptotic protease-activating factor 1 (Homo sapiens, UniProt O14727); assay type: functional
T1 sequence (O14727 whole entry): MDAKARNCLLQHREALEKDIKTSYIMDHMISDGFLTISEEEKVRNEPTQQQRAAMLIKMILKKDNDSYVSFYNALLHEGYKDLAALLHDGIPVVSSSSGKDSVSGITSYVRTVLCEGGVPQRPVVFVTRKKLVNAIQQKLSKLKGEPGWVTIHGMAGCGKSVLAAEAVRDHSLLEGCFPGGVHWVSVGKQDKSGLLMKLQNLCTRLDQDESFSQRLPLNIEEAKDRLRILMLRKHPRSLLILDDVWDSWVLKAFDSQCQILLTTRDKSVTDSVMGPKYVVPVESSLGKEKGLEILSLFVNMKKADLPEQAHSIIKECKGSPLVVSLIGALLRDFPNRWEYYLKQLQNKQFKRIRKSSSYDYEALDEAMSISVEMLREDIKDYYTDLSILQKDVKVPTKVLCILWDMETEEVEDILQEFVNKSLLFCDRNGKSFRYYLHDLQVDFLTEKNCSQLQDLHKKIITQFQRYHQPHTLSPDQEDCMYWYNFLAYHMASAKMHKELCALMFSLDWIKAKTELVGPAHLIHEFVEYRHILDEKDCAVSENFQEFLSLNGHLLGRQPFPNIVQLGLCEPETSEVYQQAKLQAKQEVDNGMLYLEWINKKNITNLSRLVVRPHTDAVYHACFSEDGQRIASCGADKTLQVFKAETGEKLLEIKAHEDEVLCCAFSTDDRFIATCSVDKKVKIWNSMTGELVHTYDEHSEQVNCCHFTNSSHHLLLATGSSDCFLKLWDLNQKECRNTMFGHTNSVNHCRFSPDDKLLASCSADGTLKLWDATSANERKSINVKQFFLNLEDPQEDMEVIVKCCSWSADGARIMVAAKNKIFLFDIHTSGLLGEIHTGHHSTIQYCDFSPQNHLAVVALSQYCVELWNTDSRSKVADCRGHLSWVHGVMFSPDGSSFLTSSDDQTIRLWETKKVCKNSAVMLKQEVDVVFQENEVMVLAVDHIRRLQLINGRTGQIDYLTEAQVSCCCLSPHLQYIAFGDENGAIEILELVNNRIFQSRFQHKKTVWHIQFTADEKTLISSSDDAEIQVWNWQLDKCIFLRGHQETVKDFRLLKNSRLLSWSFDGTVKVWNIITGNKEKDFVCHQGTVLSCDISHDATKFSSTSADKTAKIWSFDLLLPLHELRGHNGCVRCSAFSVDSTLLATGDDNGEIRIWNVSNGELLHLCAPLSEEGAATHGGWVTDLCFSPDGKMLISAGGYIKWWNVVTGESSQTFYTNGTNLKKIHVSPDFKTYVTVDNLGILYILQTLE

[4] = biological target: T2, Microphthalmia-associated transcription factor (Homo sapiens, UniProt O75030); assay: TRPM1 promoter luciferase signal decrease, dose response, MITF inhibitor project, cell-based, SK-MEL-5, cherry-picked, set 3 (AID 493073); assay type: functional
T2 sequence (O75030 whole entry): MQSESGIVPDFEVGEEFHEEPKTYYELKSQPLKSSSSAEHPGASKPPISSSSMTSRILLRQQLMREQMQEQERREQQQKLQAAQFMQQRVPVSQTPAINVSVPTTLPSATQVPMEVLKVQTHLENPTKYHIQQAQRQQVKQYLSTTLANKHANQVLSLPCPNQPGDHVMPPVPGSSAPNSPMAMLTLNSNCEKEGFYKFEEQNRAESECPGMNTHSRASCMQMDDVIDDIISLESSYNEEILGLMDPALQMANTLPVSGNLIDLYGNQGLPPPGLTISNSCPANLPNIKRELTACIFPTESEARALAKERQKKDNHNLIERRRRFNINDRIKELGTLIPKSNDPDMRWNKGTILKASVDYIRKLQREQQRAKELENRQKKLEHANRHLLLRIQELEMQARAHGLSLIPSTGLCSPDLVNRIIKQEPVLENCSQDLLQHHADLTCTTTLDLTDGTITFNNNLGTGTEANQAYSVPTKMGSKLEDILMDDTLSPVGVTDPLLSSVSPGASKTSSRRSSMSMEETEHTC

X-box-binding protein 1 = biological target: T3, X-box-binding protein 1 (Homo sapiens, UniProt P17861); assay type: functional, Cricetulus griseus;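 further: confirmatory dose-response counter-screen serving a CHOP assay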
T3 sequence (P17861 whole entry): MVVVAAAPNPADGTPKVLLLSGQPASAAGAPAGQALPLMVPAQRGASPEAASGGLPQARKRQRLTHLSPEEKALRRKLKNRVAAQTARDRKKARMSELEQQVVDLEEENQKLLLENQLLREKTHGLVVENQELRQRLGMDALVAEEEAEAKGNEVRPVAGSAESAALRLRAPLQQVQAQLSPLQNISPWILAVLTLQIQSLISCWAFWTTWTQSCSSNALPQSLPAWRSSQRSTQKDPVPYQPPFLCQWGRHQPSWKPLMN

[5] = biological target: G-protein coupled receptor 55 (Homo sapiens, UniProt Q9Y2T6); assay: GPR55 agonists via beta-arrestin recruitment, primary screen, imaging, U2OS cells, beta-arrestin-GFP redistribution (AID 1961); assay type: functional
[6] = inhibitors of clade B AD8 Env fusion, dose response, cell-based, cherry-pick (AID 652062); assay type: functional;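 further: luciferase signal from cell-cell fusion driven by HIV-1 clade B AD8 Env; potency is for inhibitors of fusion seen as a drop in luminescence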
[7] = inhibitors of HIV Env-driven cell fusion, dose response, cherry-pick (AID 652057); assay type: functional, cell-based
[8] = inhibitors of intracellular T. cruzi replication, confirmation, NIH3T3 host cells, beta-gal luminescence (AID 2044); assay type: functional, cell-based;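 further: intracellular parasites grown in NIH/3T3 mouse fibroblasts as host cells; luminescent beta-galactosidase reporter signal from transgenic T. cruzi replicating inside host cells; inhibitors lower the luminescence signal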
[9] = C. albicans growth with fluconazole, confirmation, fluorescence, retest (AID 2467); assay type: functional, cell-based
[10] = insulin promoter down-regulators in MIN6 cells, imaging, high-content screening, mouse beta cells (AID 1628); assay type: functional
INS1 = assay: beta cell apoptosis inhibitors, cytokine rescue, dose response, luminescence, retest (AID 449756); assay type: functional, cell-based; conditions: Rattus norvegicus;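 further: cell death triggered by IL-1 beta plus TNF-alpha plus IFN-gamma mixture; protective hits raise ATP signal compared with cytokine alone wells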
[11] = biological target: T4, Ubiquitin-conjugating enzyme E2 N (Homo sapiens, UniProt P61088); assay type: functional;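 further: Dose-response confirmation in a TR-FRET assay detecting UBC13-driven polyubiquitin chain formation, inhibition measured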
T4 sequence (P61088 whole entry): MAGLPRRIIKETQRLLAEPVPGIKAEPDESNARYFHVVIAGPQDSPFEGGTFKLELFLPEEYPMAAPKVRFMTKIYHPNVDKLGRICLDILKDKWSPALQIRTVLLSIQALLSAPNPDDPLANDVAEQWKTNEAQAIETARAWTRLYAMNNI

[12] = off-target signal loss in HeLa-CEM21 co-culture – HeLa F-luc CTL cells, cherry-picked, counter-screen for HIV-1 Env fusion inhibitor project, dose response (AID 652040); assay type: functional, cell-based;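 further: potency for signal decrease marking cytotoxic or nonspecific inhibition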
[13] = cytotoxicity in MIN6 insulinoma cells, dose response, cytotoxicity control, cell-based, mouse insulinoma (AID 2122); assay type: functional;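 further: confirmatory high-throughput counterscreen run to flag cytotoxic compounds; mouse MIN-6 beta cells carrying an insulin promoter eGFP reporter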
[14] = CEM21 lymphoblast cell cytotoxicity, dose response, cytotoxicity control for viral fusion inhibitor project, CellTiter-Glo luminescence, cherry-picked (AID 652042); assay type: functional, cell-based;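 further: potency for signal decrease meaning cytotoxicity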
[15] = Shn3 3'UTR reporter inhibitors, dose response, cell-based, Clone20 osteoblasts, firefly luciferase, cherry-picked (AID 624132); assay type: functional;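 further: firefly luciferase luminescence from reporter carrying the Shn3 3'UTR in osteoblasts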
Protein RecA = biological target: T5, Protein RecA (Mycobacterium tuberculosis, UniProt P9WHJ3); assay: Fluorescence Cell-Free Homogeneous Dose Retest to Identify Inhibitors of RecA-Intein Splicing Activity. [Related pubchem assays (depositor defined):AID2097, AID2223, AID489010, AID492950]; assay type: functional
T5 sequence (P9WHJ3 whole entry): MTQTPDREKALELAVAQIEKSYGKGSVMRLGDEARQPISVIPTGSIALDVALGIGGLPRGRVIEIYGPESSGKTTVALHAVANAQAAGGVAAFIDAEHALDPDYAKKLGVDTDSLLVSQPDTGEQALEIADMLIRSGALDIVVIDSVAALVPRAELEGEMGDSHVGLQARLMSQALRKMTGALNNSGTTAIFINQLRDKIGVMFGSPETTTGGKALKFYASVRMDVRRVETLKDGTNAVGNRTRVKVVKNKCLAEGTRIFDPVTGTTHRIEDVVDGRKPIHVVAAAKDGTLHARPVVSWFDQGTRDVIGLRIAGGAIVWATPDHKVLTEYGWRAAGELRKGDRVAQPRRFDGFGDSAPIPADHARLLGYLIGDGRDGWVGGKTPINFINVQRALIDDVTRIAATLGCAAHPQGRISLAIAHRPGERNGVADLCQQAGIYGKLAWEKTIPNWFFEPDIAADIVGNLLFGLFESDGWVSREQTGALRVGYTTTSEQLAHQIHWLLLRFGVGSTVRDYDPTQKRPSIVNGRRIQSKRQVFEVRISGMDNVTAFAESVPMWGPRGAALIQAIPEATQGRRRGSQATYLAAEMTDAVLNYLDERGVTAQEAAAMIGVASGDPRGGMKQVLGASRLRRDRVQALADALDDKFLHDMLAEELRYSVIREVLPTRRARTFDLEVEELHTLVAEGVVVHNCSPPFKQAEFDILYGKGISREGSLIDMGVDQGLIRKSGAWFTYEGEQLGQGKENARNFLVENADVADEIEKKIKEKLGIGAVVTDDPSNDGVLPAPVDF

[16] = biological target: T6, Replicative DNA helicase DnaB (Mycobacterium tuberculosis, UniProt P9WMR3); assay: DnaB intein splicing inhibitors, dose response, biochemical, cell-free fluorescence (AID 449749); assay type: functional
T6 sequence (P9WMR3 whole entry): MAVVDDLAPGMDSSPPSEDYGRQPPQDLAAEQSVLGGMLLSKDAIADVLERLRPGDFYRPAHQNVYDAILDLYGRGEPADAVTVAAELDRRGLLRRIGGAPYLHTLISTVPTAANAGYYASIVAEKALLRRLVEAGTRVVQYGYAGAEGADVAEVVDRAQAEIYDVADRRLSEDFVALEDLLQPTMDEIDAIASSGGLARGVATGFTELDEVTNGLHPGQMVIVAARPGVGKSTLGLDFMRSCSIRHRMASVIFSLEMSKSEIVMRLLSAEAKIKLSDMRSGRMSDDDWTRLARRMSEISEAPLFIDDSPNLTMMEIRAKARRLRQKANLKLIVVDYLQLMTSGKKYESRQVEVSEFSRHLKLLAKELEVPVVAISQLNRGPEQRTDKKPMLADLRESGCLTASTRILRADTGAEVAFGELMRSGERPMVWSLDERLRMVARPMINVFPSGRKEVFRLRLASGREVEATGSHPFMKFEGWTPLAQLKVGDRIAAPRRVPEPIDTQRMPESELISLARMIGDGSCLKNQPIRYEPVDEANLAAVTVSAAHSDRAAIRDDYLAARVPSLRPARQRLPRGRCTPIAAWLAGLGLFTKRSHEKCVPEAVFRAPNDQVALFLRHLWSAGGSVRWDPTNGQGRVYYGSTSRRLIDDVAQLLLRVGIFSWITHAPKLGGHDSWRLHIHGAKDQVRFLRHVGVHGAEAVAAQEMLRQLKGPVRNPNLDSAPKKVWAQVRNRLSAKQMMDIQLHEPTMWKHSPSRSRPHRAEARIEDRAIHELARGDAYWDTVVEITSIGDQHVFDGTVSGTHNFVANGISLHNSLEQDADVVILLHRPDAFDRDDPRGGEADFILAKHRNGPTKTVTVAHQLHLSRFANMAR

Fatty acid synthase [17] = biological target: T7, Fatty acid synthase (Homo sapiens, UniProt P49327); assay: FAS thioesterase domain inhibitors, dose response, biochemical, kinetic fluorescence intensity (AID 624326); assay type: functional;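 further: rate of fluorescence rise from hydrolysis of a fluorogenic O-methyl fluorescein ester substrate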
Fatty acid synthase [18] = biological target: T7, Fatty acid synthase; assay: FAS thioesterase domain inhibitors, dose response, biochemical, endpoint fluorescence intensity, uHTS hits (AID 624327); assay type: functional;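 further: fluorescence from hydrolysis of an O-methyl fluorescein acyl ester substrate by the enzyme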
[19] = control 3'UTR Renilla luciferase suppression, dose response, counter-screen for Shn3 inhibitor project, cell-based, Clone20-Shn3RL, cherry-picked (AID 624133); assay type: functional
CHO = assay: cytotoxicity in TLR9-MyD88 CHO cells, dose response, cytotoxicity control for TLR9-MyD88 binding inhibitor project, cell-based, luminescence (AID 588339); assay type: functional, hamster; conditions: Cricetulus griseus;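 further: CHO cells stably coexpressing TLR9 and MyD88 fusions from primary screen; compound exposure lasted 48 hours before viability readout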
Beta Lactamase = Beta Lactamase (Pseudomonas aeruginosa, UniProt Q932Y6); assay: beta-lactamase reporter inhibitor potency, dose response, artefact control for TLR9-MyD88 binding inhibitor project, BLA reporter cells, FRET fluorescence (AID 588341); assay type: cell-based;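 further: cell based assay in CHO-K1 cells stably expressing beta-lactamase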
[20] = HepG2 cell cytotoxicity, dose response, cytotoxicity control for Shn3 inhibitor project, CellTiter-Glo, cherry-picked (AID 624134); assay type: functional, cell-based

T7 sequence (P49327 whole entry, the tested form may be a part): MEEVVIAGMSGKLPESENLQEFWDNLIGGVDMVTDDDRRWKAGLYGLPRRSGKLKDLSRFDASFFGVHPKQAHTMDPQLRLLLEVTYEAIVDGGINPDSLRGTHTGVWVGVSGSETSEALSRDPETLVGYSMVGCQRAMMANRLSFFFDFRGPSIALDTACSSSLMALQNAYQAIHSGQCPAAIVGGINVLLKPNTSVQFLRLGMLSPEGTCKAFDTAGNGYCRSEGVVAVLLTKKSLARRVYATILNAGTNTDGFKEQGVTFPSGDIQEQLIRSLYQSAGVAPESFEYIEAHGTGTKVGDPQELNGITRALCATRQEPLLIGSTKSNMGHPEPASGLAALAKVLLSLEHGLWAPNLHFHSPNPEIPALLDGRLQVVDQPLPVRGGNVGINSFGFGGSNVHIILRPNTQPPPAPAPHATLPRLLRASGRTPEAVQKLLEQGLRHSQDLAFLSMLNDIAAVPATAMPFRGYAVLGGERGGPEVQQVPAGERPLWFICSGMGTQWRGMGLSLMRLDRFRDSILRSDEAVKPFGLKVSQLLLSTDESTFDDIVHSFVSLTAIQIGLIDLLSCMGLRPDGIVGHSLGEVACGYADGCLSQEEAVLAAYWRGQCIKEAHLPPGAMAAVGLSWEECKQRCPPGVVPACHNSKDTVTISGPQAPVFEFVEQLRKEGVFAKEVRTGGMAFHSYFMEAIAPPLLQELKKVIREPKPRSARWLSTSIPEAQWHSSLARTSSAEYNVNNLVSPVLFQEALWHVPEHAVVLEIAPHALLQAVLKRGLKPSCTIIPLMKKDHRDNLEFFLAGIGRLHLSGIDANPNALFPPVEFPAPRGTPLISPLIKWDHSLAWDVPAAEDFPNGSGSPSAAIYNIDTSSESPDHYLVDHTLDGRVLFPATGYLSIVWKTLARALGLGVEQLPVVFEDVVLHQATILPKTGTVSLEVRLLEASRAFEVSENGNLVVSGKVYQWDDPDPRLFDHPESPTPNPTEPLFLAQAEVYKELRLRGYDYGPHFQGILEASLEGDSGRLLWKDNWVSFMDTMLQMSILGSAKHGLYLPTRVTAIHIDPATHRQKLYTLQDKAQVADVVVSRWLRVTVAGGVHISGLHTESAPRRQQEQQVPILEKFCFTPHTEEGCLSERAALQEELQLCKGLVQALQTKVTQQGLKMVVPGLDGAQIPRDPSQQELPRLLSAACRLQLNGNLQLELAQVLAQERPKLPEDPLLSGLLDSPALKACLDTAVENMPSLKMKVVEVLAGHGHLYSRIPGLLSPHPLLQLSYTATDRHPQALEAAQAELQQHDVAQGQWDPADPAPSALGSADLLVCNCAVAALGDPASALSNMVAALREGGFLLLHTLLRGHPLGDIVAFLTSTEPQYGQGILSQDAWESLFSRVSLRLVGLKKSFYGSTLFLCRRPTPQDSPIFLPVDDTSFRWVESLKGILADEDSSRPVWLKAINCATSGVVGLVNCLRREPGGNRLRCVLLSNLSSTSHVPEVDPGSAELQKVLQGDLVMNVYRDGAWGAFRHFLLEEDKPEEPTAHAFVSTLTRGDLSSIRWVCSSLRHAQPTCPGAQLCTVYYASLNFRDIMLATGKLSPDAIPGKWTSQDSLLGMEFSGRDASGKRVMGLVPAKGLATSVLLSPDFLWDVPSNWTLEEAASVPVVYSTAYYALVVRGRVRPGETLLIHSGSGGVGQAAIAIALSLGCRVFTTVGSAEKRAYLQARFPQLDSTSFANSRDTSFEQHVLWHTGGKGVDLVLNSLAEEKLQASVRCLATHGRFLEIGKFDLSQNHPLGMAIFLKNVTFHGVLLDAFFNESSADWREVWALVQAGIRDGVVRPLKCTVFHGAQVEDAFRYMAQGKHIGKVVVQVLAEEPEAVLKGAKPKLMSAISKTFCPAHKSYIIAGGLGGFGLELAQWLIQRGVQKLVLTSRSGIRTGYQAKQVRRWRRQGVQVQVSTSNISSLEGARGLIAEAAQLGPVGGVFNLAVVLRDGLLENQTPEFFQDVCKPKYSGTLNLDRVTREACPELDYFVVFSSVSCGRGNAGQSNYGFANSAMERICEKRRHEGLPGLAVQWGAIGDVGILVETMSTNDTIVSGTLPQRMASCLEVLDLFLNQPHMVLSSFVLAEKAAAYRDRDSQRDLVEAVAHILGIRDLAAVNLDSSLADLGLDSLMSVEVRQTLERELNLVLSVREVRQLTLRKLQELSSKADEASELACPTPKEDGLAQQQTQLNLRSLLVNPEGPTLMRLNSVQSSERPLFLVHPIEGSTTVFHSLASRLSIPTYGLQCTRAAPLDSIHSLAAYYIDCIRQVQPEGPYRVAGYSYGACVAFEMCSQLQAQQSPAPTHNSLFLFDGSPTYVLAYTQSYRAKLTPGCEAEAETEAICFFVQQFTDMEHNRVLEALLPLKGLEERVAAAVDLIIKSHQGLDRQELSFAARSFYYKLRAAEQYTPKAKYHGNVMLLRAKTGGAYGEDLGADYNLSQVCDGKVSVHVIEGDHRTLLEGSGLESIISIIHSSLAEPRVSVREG
Chain of G-protein coupled receptor 55 (Q9Y2T6 whole entry, the tested form may be a part): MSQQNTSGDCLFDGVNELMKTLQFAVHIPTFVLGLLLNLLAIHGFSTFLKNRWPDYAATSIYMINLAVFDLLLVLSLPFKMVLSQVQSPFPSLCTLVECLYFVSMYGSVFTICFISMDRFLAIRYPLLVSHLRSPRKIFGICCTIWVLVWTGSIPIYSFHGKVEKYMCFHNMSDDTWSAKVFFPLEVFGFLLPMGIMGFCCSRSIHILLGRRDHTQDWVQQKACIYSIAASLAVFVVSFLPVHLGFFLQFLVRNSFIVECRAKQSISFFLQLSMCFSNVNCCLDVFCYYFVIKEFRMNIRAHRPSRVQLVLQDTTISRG
Chain of Beta Lactamase (Q932Y6 whole entry): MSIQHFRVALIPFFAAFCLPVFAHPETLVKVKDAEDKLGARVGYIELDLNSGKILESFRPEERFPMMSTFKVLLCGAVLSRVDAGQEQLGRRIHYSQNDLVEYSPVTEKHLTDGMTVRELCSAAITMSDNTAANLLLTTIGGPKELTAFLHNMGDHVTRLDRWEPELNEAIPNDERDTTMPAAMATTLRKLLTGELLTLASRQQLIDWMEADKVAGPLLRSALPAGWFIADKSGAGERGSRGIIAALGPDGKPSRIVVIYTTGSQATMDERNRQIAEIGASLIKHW

Cc1ccccc1OCc1n(CC(=O)OC2CC(C)CCC2C(C)C)c2ccccc2[n+]1C.[Cl-] (stereo unspecified)
10 µM: Absolute IC50 (XBP1) (X-box-binding protein 1)
active: AC50 [2] 8.94 µM | AC50 (A-375) 19 µM | IC50 [3] 29.5 µM | AC50 [4] 7.51 µM | AC50 [6] 7 µM | AC50 [7] 6.17 µM | EC50 [8] 684 nM and 429 nM | EC50 [9] 0.693 µM | IC50 [10] 1.52 µM | AC50 (INS1) 3.39 µM | AC50 [12] 9.17 µM | IC50 [13] 1.95 µM | AC50 [14] 4.93 µM
inactive: EC50 [1] > 160 µM | EC50 [5] > 32 µM | IC50 [11] > 20 µM

CCCC(=O)OCCNc1cc(Sc2nc3ccccc3[nH]2)c2nonc2c1[N+](=O)[O-]
active: AC50 [15] 6.63 µM | EC50 (Protein RecA) 0.657 µM | AC50 [16] 0.855 µM | IC50 (Fatty acid synthase [17]) 1.34 µM | IC50 (Fatty acid synthase [18]) 2.2 µM | AC50 [19] 8.96 µM | IC50 (CHO) 4.59 µM | AC50 [20] 24.2 µM
inactive: IC50 (Beta Lactamase) 10.9 µM
